Laboratory results taken from ChEMBL document CHEMBL1201862, “PubChem BioAssay data set” (2004).
The source made the active and inactive calls.

Columns and labels:
[1] = biological target: Dual specificity protein phosphatase 3 (Homo sapiens, UniProt P51452); experiment: inhibition constants for human DUSP3 – biochemical, colorimetric, SAR follow-up (AID 2004)
Streptokinase A = biological target: T1, Streptokinase A (Streptococcus pyogenes serotype M1, UniProt P10520); experiment: viability-normalized secreted streptokinase activity reduction – plasminogen activation absorbance, OD405, dose response (AID 1914); assay type: functional, Streptococcus pyogenes M1 GAS;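 note: secreted streptokinase activity via plasminogen activation per viability signal from cell pellet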
T1 sequence (P10520 whole entry): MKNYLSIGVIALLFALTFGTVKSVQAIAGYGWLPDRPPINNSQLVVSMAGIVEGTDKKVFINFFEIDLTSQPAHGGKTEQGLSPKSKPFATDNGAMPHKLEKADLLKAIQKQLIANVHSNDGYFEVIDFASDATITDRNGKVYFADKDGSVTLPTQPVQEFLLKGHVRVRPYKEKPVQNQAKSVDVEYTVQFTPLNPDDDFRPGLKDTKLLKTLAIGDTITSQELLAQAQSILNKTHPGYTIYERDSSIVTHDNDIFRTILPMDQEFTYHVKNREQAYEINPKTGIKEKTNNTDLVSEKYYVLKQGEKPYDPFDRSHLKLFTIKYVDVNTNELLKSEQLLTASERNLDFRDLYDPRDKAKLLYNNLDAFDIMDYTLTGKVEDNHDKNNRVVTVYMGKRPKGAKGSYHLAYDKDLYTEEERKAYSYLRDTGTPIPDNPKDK

[2] = tested on: Streptococcus sp. 'group A'; experiment: Streptococcus pyogenes SK(-)GAS viability under kanamycin – luminescence, BacTiterGlo, confirmation, counter-screen for streptokinase expression inhibitor project, dose response (AID 1900); assay type: functional, organism-based
Streptococcus = experiment: GAS UMAA2166 growth inhibition – luminescence, BacTiterGlo, counter-screen for streptokinase expression inhibitor project, dose response (AID 1915); assay type: functional, organism-based;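 note: potency for reduction of bacterial viability or growth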
[3] = biological target: G-protein coupled receptor 35 (Homo sapiens, UniProt Q9HC97); experiment: inhibition of zaprinast-stimulated GPR35 beta-arrestin translocation – imaging, U2OS, beta-arrestin-GFP, zaprinast agonist, primary screen (AID 2058); assay type: functional;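 note: antagonist potency meaning inhibition of agonist-induced arrestin redistribution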
[4] = viability loss in THP-1 monocytes – THP-1 cells, cytotoxicity control for Vif-APOBEC3G degradation inhibitor project, dose response (AID 1117359); assay type: functional; settings: THP-1
Hexokinase HKDC1 = Hexokinase HKDC1 (Homo sapiens, UniProt Q2TB90); experiment: inhibition of HKDC1 glucose phosphorylation – biochemical, W721R variant, dose response (AID 504729); assay type: functional
[5] = biological target: Glutathione-S-transferase (Schistosoma japonicum, UniProt Q26513); experiment: GST-antibody interaction or FRET quenching – biochemical, TR-FRET, artefact control for Vif-APOBEC3G degradation inhibitor project, dose response (AID 1117362); assay type: functional
Glutathione-S-transferase, sequence (Q26513 whole entry): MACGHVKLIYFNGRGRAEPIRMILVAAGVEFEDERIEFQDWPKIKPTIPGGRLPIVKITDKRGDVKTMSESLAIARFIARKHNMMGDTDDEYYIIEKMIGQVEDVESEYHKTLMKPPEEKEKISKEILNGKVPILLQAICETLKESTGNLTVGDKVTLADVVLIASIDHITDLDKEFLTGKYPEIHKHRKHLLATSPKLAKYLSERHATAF

Hexokinase HKDC1, sequence (Q2TB90 whole entry): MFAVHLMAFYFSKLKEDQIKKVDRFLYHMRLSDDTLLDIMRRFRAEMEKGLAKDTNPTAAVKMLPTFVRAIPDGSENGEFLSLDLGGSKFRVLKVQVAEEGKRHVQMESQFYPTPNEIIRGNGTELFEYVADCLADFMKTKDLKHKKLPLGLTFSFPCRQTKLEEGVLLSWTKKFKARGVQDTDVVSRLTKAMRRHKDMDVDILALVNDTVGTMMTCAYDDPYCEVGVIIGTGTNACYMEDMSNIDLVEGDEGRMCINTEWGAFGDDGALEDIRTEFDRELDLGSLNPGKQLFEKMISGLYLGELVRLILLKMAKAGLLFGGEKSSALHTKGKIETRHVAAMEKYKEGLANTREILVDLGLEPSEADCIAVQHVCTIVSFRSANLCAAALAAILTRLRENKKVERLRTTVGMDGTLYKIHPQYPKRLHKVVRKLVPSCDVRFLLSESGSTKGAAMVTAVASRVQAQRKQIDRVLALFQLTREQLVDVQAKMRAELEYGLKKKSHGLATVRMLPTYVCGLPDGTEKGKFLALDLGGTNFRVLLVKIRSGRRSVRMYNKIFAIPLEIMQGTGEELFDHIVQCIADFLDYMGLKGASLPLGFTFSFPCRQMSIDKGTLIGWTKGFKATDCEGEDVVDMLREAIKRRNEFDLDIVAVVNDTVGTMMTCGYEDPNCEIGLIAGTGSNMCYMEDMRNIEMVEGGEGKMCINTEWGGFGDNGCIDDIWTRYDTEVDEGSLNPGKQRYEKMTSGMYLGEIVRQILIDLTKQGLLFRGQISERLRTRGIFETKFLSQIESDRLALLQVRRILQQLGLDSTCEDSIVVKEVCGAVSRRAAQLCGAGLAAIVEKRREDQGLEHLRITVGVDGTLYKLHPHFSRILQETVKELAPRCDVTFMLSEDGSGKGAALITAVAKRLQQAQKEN
G-protein coupled receptor 35, sequence (Q9HC97 whole entry): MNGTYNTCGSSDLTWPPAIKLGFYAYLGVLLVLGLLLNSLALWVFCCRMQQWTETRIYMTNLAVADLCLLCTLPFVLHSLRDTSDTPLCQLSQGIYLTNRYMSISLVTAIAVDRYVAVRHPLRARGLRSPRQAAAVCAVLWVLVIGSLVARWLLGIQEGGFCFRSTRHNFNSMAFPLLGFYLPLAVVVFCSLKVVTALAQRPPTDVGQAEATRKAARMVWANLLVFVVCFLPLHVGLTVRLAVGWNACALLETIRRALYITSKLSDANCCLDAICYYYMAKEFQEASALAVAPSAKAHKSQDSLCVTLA
Dual specificity protein phosphatase 3, sequence (P51452 whole entry): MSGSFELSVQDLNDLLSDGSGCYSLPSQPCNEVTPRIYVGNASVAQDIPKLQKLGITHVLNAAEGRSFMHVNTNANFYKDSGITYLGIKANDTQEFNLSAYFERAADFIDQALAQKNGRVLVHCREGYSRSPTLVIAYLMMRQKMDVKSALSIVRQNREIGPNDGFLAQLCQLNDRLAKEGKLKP

SMILES: O=C1/C(=C\c2ccc(-c3cccc(Cl)c3)o2)SC(=S)N1CCS(=O)(=O)O
- Ki [1]: 3.13 µM (active)

SMILES: CC(C)c1ccc(N2C(=O)/C(=C/N(C)C)SC2=S)cc1
- EC50 (Streptokinase A): 5.29 µM (active)
- EC50 [2]: 3.85 µM (active)
- EC50 (Streptococcus): 57 µM (active)
- IC50 [3]: 0.835 µM (active)

SMILES: O=C1C(CO)=C(CO)C(=O)c2c(O)ccc(O)c21
- CC50 [4]: 25.3 µM (active)
- IC50 (Hexokinase HKDC1): 15.2 µM (active)
- IC50 [5]: > 100 µM (active)
